From patent publication US20200315996A1 (Board of Trustees, Southern Illinois University, priority 2016, published 2020)

Columns and labels:
PTGS2 (COX2) = test: Immunohistochemistry of endometriotic lesions, PTGS2; assay type: in vivo, mice; conditions: 3 weeks; for % of PTGS2 positive cells/total cells/0.007 mm^2, Stroma: control 20.1 ± 2.2; for % of PTGS2 positive cells/total cells/0.007 mm^2, Epithelium: control 98.4 ± 0.5
Source text: (§1) The presence and location of different proteins in the tissues obtained from the recipient mice. Samples of uterine tissue were isolated from the recipient mice, fixed by standard histological methods, and embedded in paraffin. Thin sections (5 μm) of the paraffin-embedded tissues were screened with standard immunohistochemical methods using antibodies to identify the expression of in the uterine tissues.
(§2) Primary antibodies that recognized MKI67 (Ki67), PECAM1 (CD31), ESR1, PGR, p-CHUK (IKK), p-STAT3, NOS2 (iNOS) and PTGS2 (COX2), and Vectastain Elite ABC Kit (# PK-6101), Mouse on Mouse Basic Kit (# BMK-2202, Vector laboratories) or DyLight-conjugated secondary antibody (#711-516-152, Jackson ImmunoResearch Lab) were used to show the presence of the proteins in the tissues, which were examined under microscopes.
(§3) The primary antibodies used in these analyses were: anti-MKI67 (Ki67, 1:200 dilution, 550609, BD Biosciences), anti-PECAM1 (CD31, 1:100 dilution, ab28364, Abcam), anti-ESR1 (1:100 dilution, sc-542, Santa Cruz Biotechnology), anti-PGR (1:200 dilution, RB-9017-P0, Thermo Scientific), anti-p-CHUK (IKK, 1:150 dilution, 2697, Cell Signaling Technology), anti-p-STAT3 (1:50 dilution, 9145, Cell Signaling Technology), anti-NOS2 (iNOS, 1:50 dilution, 610333, BD Biosciences) and anti-PTGS2 (COX2, 1:50 dilution, RM-9121, Thermo Scientific).
(§4) The expression of MKI67, ESR1, PGR, p-CHUK, p-STAT3, NOS2 and PTGS2 proteins in uterine tissues, as determined by immunohistochemical analysis of uterine tissue sections, was semiquantitatively analyzed. Levels of apoptosis were analyzed by TUNEL assay and also semiquantitatively analyzed. Histological sections were obtained from 4 different lesions. For each section, three different areas measuring 0.007 mm^2 were chosen. In each of those areas, the total number of epithelial or stromal cells was counted, as was the number of cells that tested positive for expressing MKI67 (a marker of cellular proliferation), steroid receptors ESR1 and PGR, and inflammatory signaling molecules p-CHUK, p-STAT3, NOS2 and PTGS2 proteins.
The expression of PTGS2 (COX2), an inflammatory molecule […] by NFκB and STAT3 signaling, was examined with a primary antibody against PTGS2.

apoptosis = test: TUNEL assay of endometriotic lesions; assay type: in vivo, mice; conditions: 3 weeks, control 8.7 ± 1.3
Description: The TUNEL assay is another immunohistological method used to show the amount of apoptosis, or programmed cell death, present in the uterine tissues. The TUNEL assay was performed on sections of uterine tissue according to manufacturer's instructions using ApopTag Fluorescein In Situ Apoptosis Detection Kit (# S7160, Millipore). The TUNEL assay, which identifies cells undergoing apoptosis, was semiquantitatively analyzed using areas of 0.02 mm^2 (3 different areas counted from each section, with sections obtained from 4 different lesions), and semiquantitatively analyzed.

female mice = test: Effect of oral niclosamide on reproductive function (Study 2); assay type: in vivo
Description: The sham surgery was performed following the same steps as the endometriosis surgery except that no donor tissues were implanted onto the peritoneal walls of those mice; only sutures were applied to the peritoneal walls.
(§5) The recipient mice continued receiving oral daily niclosamide treatments until mouse pups were born, after which niclosamide treatment was discontinued. Three weeks after the pups were born, on postnatal day (PND) 21, the recipient mice were necropsied and the pups were weaned.
For each mated mouse, the following parameters were measured and recorded: the time of the formation of the vaginal plug after mating (days); the length of time that the mated mouse gestated or was pregnant (days); the number of pups born to each mated mouse; and the size and volume of the endometriotic lesions harvested from the mice after necropsy. Tissues were harvested from the mice, including endometriotic lesions and peritoneal walls to analyze the expression of proteins and genes of interest.
For each pup born to a mated mouse, its weight (g) at birth and on PND 21 was measured.

PECAM1 (CD31) = test: Immunohistochemistry of endometriotic lesions, PECAM1 (endothelial cells); assay type: in vivo, mice; conditions: 3 weeks, control 38.3 ± 3.6
Source text: as §1
as §2, with “microscopes. […]” for “microscopes.”
The expression of PECAM1, a marker of endothelial cells, was semiquantitatively analyzed using areas of 0.02 mm^2 (3 different areas counted from each section, with sections obtained from 4 different lesions), and semiquantitatively analyzed.

PGR = test: Immunohistochemistry of endometriotic lesions, PGR; assay type: in vivo, mice; conditions: 3 weeks; for % of PGR positive cells/total cells/0.007 mm^2, Stroma: control 47.2 ± 4.0; for % of PGR positive cells/total cells/0.007 mm^2, Epithelium: control 76.7 ± 7.0
Source text: as §1, §2, §3, §4

rats = conditions: orally for 4 weeks; cited from earlier work
ESR1 = test: Immunohistochemistry of endometriotic lesions, ESR1; assay type: in vivo, mice; conditions: 3 weeks; for % of ESR1 positive cells/total cells/0.007 mm^2, Stroma: control 45.6 ± 6.9; for % of ESR1 positive cells/total cells/0.007 mm^2, Epithelium: control 79.1 ± 3.7
Source text: as §1, §2, §3, §4

recipient mice = test: General tolerability in recipient mice (Studies 1 and 2); assay type: in vivo
Source text: Uterine tissue pieces of B6-GFP mice (donor) were implanted into the peritoneal walls of recipient mice.
as §5

endometriotic lesions = test: Endometriotic lesions examined on PND 21 (Study 2); assay type: in vivo, mice; conditions: 200 mg/kg b.w./day; examined 3 weeks after the final dosage
Description: The sham surgery was performed following the same steps as the endometriosis surgery except that no donor tissues were implanted onto the peritoneal walls of those mice; only sutures were applied to the peritoneal walls. […] The recipient mice continued receiving oral daily niclosamide treatments until mouse pups were born, after which niclosamide treatment was discontinued. Three weeks after the pups were born, on postnatal day (PND) 21, the recipient mice were necropsied and the pups were weaned. For each mated mouse, the following parameters were measured and recorded: the time of the formation of the vaginal plug after mating (days); the length of time that the mated mouse gestated or was pregnant (days); the number of pups born to each mated mouse; and the size and volume of the endometriotic lesions harvested from the mice after necropsy. Tissues were harvested from the mice, including endometriotic lesions and peritoneal walls to analyze the expression of proteins and genes of interest.

[1] = after 3 weeks of treatment, 100 or 200 mg/kg b.w./day oral

O=C(Nc1ccc([N+](=O)[O-])cc1Cl)c1cc(Cl)ccc1O [niclosamide, 5-chloro-N-(2-chloro-4-nitrophenyl)-2-hydroxybenzamide]
% of PTGS2 positive cells/total cells/0.007 mm^2, Stroma (PTGS2 (COX2); 100 mg/kg b.w./day oral): 20.3 ± 3.3% | % of PTGS2 positive cells/total cells/0.007 mm^2, Epithelium (PTGS2 (COX2); 100 mg/kg b.w./day oral): 98.2 ± 0.5% | % of PTGS2 positive cells/total cells/0.007 mm^2, Stroma (PTGS2 (COX2); 200 mg/kg b.w./day oral): 22.8 ± 2.0% | % of PTGS2 positive cells/total cells/0.007 mm^2, Epithelium (PTGS2 (COX2); 200 mg/kg b.w./day oral): 98.7 ± 0.7% | Cell number of TUNEL positive cells/0.02 mm^2 (apoptosis; 100 mg/kg b.w./day oral): 8.2 ± 1.3 cells/0.02 mm^2 | Cell number of TUNEL positive cells/0.02 mm^2 (apoptosis; 200 mg/kg b.w./day oral): 7.8 ± 1.0 cells/0.02 mm^2 | time to receive vaginal plug, between the groups (female mice; 0 or 200 mg/kg b.w./day oral, mated after 4 days of treatment): No significant differences | pregnancy and birth in recipient mice exposed to niclosamide (female mice; 200 mg/kg b.w./day oral until pups were born): became pregnant and gave birth | gestational length, number of pups, and weight of pups at birth and on PND21 (female mice; 200 mg/kg b.w./day oral until pups were born vs 0): did not cause any differences | Cell number of PECAM1 positive cells/0.02 mm^2 (PECAM1 (CD31); 100 mg/kg b.w./day oral): 34.7 ± 3.6 cells/0.02 mm^2 | Cell number of PECAM1 positive cells/0.02 mm^2 (PECAM1 (CD31); 200 mg/kg b.w./day oral): 32.7 ± 2.8 cells/0.02 mm^2 | % of PGR positive cells/total cells/0.007 mm^2, Stroma (PGR; 100 mg/kg b.w./day oral): 58.1 ± 5.2% | % of PGR positive cells/total cells/0.007 mm^2, Epithelium (PGR; 100 mg/kg b.w./day oral): 60.4 ± 10.7% | % of PGR positive cells/total cells/0.007 mm^2, Stroma (PGR; 200 mg/kg b.w./day oral): 50.1 ± 6.9% | % of PGR positive cells/total cells/0.007 mm^2, Epithelium (PGR; 200 mg/kg b.w./day oral): 69.9 ± 12.2% | dose that elicits no adverse effects (rats): up to 2000 mg/kg daily | % of ESR1 positive cells/total cells/0.007 mm^2, Stroma (ESR1; 100 mg/kg b.w./day oral): 55.9 ± 5.5% | % of ESR1 positive cells/total cells/0.007 mm^2, Epithelium (ESR1; 100 mg/kg b.w./day oral): 96.6 ± 2.0% | % of ESR1 positive cells/total cells/0.007 mm^2, Stroma (ESR1; 200 mg/kg b.w./day oral): 37.7 ± 5.7% | % of ESR1 positive cells/total cells/0.007 mm^2, Epithelium (ESR1; 200 mg/kg b.w./day oral): 82.6 ± 5.6% | adverse effects including weight loss in recipient mice (recipient mice; [1]): no obvious adverse effects | estrous cyclicity by vaginal cytology (recipient mice; [1]): observed in all mice | adverse reactions, such as weight loss or changes in behavior in the recipient mice (recipient mice; daily 200 mg/kg b.w. for three (Study 1) to four weeks (Study 2)): did not cause any adverse reactions | lesion sizes on PND 21 (endometriotic lesions): maintained the reduction of lesion sizes
